System: P12-Ichikawa
Test: cell viability relative to DMSO control; higher = less cytotoxic
Details: 48 h
Outline: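 Viability, reported as a per-plate percentage of DMSO wells with cell-free wells as background, came from CellTiter-Glo One luminescence. Reading took place after 48 h at 37°C. Before that, NOMO1 or SEM (500 cells/well) or P12-Ichikawa (1000 cells/well) leukemia cells, adapted for at least four passages in each medium, were seeded in 1536-well plates (5 μl) and pin-dosed with library compounds in DMSO, 47 μM to 0.79 nM over 11 threefold points.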

[1] = HPLM + 10% dialyzed FBS, 0.000781 µM
[2] = HPLM + 10% dialyzed FBS, 0.00234 µM
[3] = HPLM + 10% dialyzed FBS, 0.00702 µM
[4] = HPLM + 10% dialyzed FBS, 0.0211 µM
[5] = HPLM + 10% dialyzed FBS, 0.0632 µM
[6] = HPLM + 10% dialyzed FBS, 0.19 µM
[7] = HPLM + 10% dialyzed FBS, 0.569 µM
[8] = HPLM + 10% dialyzed FBS, 1.71 µM
[9] = HPLM + 10% dialyzed FBS, 5.12 µM
[10] = HPLM + 10% dialyzed FBS, 15.4 µM
[11] = HPLM + 10% dialyzed FBS, 46.1 µM
[12] = RPMI 5 mM glucose + 10% FBS, 0.000781 µM
[13] = RPMI 5 mM glucose + 10% FBS, 0.00234 µM
[14] = RPMI 5 mM glucose + 10% FBS, 0.00702 µM
[15] = RPMI 5 mM glucose + 10% FBS, 0.0211 µM
[16] = RPMI 5 mM glucose + 10% FBS, 0.0632 µM
[17] = RPMI 5 mM glucose + 10% FBS, 0.19 µM
[18] = RPMI 5 mM glucose + 10% FBS, 0.569 µM
[19] = RPMI 5 mM glucose + 10% FBS, 1.71 µM
[20] = RPMI 5 mM glucose + 10% FBS, 5.12 µM
[21] = RPMI 5 mM glucose + 10% FBS, 15.4 µM
[22] = RPMI 5 mM glucose + 10% FBS, 46.1 µM
[23] = RPMI 5 mM glucose + 10% dialyzed FBS, 0.000781 µM
[24] = RPMI 5 mM glucose + 10% dialyzed FBS, 0.00234 µM
[25] = RPMI 5 mM glucose + 10% dialyzed FBS, 0.00702 µM
[26] = RPMI 5 mM glucose + 10% dialyzed FBS, 0.0211 µM
[27] = RPMI 5 mM glucose + 10% dialyzed FBS, 0.0632 µM
[28] = RPMI 5 mM glucose + 10% dialyzed FBS, 0.19 µM
[29] = RPMI 5 mM glucose + 10% dialyzed FBS, 0.569 µM
[30] = RPMI 5 mM glucose + 10% dialyzed FBS, 1.71 µM
[31] = RPMI 5 mM glucose + 10% dialyzed FBS, 5.12 µM
[32] = RPMI 5 mM glucose + 10% dialyzed FBS, 15.4 µM
[33] = RPMI 5 mM glucose + 10% dialyzed FBS, 46.1 µM

| SMILES | cell viability [1] [%] | cell viability [2] [%] | cell viability [3] [%] | cell viability [4] [%] | cell viability [5] [%] | cell viability [6] [%] | cell viability [7] [%] | cell viability [8] [%] | cell viability [9] [%] | cell viability [10] [%] | cell viability [11] [%] | cell viability [12] [%] | cell viability [13] [%] | cell viability [14] [%] | cell viability [15] [%] | cell viability [16] [%] | cell viability [17] [%] | cell viability [18] [%] | cell viability [19] [%] | cell viability [20] [%] | cell viability [21] [%] | cell viability [22] [%] | cell viability [23] [%] | cell viability [24] [%] | cell viability [25] [%] | cell viability [26] [%] | cell viability [27] [%] | cell viability [28] [%] | cell viability [29] [%] | cell viability [30] [%] | cell viability [31] [%] | cell viability [32] [%] | cell viability [33] [%] |
| --- | --- | --- | --- | --- | --- | --- | --- | --- | --- | --- | --- | --- | --- | --- | --- | --- | --- | --- | --- | --- | --- | --- | --- | --- | --- | --- | --- | --- | --- | --- | --- | --- | --- |
| COC1=CC=C(C=C1)C/2=C/OC3=C(C(=CC(=C3)O)O)C2=O | 113 | 120 | 118 | 77.2 | 124 | 120 | 119 | 123 | 117 | 105 | 74.5 | 108 | 108 | 113 | 65.2 | 120 | 120 | 133 | 121 | 123 | 127 | 123 | 118 | 118 | 119 | 82 | 131 | 133 | 129 | 137 | 133 | 134 | 93.7 |
| C\C1=C(\C=C(C#N)/C(=O)N1)C2=C[N]3C=CN=C3C=C2 | 88.1 | 82.3 | 87.3 | 89.8 | 87.1 | 84.6 | 89.9 | 88.5 | 85.1 | 91.5 | 92.5 | 88.8 | 80.1 | 82.9 | 88 | 79.3 | 79.2 | 80 | 81.7 | 86.6 | 80.5 | 84.7 | 81.7 | 72.9 | 78.3 | 78.7 | 81.5 | 78.8 | 80.7 | 78.3 | 80.4 | 74.9 | 77.9 |
| CC[C@H](C)[N]1C=C(C)C2=C1C=C(C=C2C(=O)NC\C3=C(C)\C=C(\C)NC3=O)C4=CC=C(N=C4)N5CCNCC5 | 109 | 116 | 114 | 115 | 115 | 122 | 116 | 117 | 114 | 118 | 109 | 104 | 116 | 117 | 118 | 117 | 113 | 126 | 129 | 117 | 125 | 106 | 103 | 107 | 108 | 113 | 115 | 114 | 116 | 132 | 115 | 108 | 93.1 |
| FC(F)c1nc2ccccc2n1-c1nc(N2CCOCC2)nc(N2CCOCC2)n1 | 98.2 | 108 | 107 | 104 | 101 | 91.4 | 85.4 | 78.5 | 83.8 | 81.9 | 59.1 | 98 | 104 | 96 | 85.4 | 92.8 | 71 | 64.7 | 58.9 | 61.1 | 58.7 | 58 | 106 | 94.5 | 103 | 102 | 95.3 | 92.6 | 75.7 | 54.4 | 63.5 | 64.8 | 55.8 |
| COc1cc2c(cc1OC)CC(=O)N(CCCN(C)C[C@H]1Cc3cc(OC)c(OC)cc31)CC2.Cl | 108 | 111 | 111 | 108 | 104 | 120 | 113 | 114 | 116 | 108 | 106 | 97.5 | 106 | 115 | 113 | 109 | 111 | 110 | 102 | 109 | 104 | 106 | 104 | 104 | 114 | 115 | 113 | 111 | 102 | 97.3 | 108 | 98.1 | 100 |
| N[C@H](CSC(c1ccccc1)(c1ccccc1)c1ccccc1)C(=O)O | 107 | 112 | 121 | 129 | 108 | 114 | 117 | 120 | 115 | 114 | 108 | 97.6 | 112 | 115 | 124 | 116 | 122 | 120 | 119 | 125 | 124 | 131 | 90.9 | 116 | 122 | 116 | 118 | 112 | 115 | 121 | 127 | 121 | 116 |
| CC(N)C12CC3CC(CC(C3)C1)C2 (stereo not drawn) | 105 | 108 | 111 | 117 | 124 | 109 | 111 | 114 | 110 | 99.1 | 8.72 | 103 | 113 | 101 |  | 123 | 118 | 112 | 112 | 111 | 117 | 13.2 | 105 | 106 | 115 | 101 | 112 | 110 | 108 | 125 | 108 | 105 | 18.8 |
| CNC1CCC(N(Cc2cccc(-c3ccncc3)c2)C(=O)c2sc3c(F)ccc(F)c3c2Cl)CC1 (stereo not drawn) | 87.6 | 101 | 106 | 105 | 107 | 109 | 104 | 114 | 101 | 99.3 | 71.4 | 92.9 | 109 | 98.2 | 104 | 110 | 105 | 108 | 100 | 106 | 94.9 | 72.8 | 92.8 | 102 | 105 | 105 | 97.5 | 105 | 106 | 94.3 | 103 | 93.6 | 55.3 |
